# Measurements from PMC9693575, “Isopropyl Amino Acid Esters Ionic Liquids as Vehicles for Non-Steroidal Anti-Inflammatory Drugs in Potential Topical Drug Delivery Systems with Antimicrobial Activity” (International Journal of Molecular Sciences, 2022).
# Read-outs that look alike come from different tables or passages of the source.
# Legend:
# [1] = pKa / pKB by potentiometric acid-base titration and formation constant log(KS); conditions: calculated from pKA of acid and pKB of base
# Experimental: Determination of formation constant pKs
# Zabrze, Poland). For the measurement of pKA acids, 0.1 M NaOH was used. In order to
# ester hydrochloride, HCl aqueous solution, was added in an amount that allowed reach-
# After that, an acid-base titration was made out by adding dropwise 5 mM
# [2] = test system: Staphylococcus epidermidis; test: Disc diffusion antimicrobial susceptibility test, Staphylococcus epidermidis; type: cell-based; design: key to Inhibition diameter: -: no growth of the organism
# Experimental: (§1) The plates were incubated for 24 h at 37 °C.
# physchem = test: physchem
# Text: This study aims to compare the influence of amino acid structure on the physicochemical properties of NSAID salts with the isopropyl ester of amino acids.
# [3] = DTG; cited from earlier work
# Escherichia coli = test: Disc diffusion antimicrobial susceptibility test, Escherichia coli; type: cell-based; design: key to Inhibition diameter: -: no growth of the organism
# Experimental: as §1
# Micrococcus Luteus = test: Disc diffusion antimicrobial susceptibility test, Micrococcus luteus; type: cell-based; design: key to Inhibition diameter: -: no growth of the organism
# [4] = Thermogravimetric analysis (thermal stability); conditions: for TDTGmax, maximum decomposition temperature: DTG, air atmosphere, 10 °C min−1
# Experimental: The thermal stabilities of the obtained NSAIDs isopropyl ester amino acid salts were investigated. […] The beginning of thermal degradation was evaluated based on the value of onset of the TG curve, which occurs in the first phase of the process. […]
# Thermogravimetric analysis (TG)
# Thermogravimetric analysis was carried out using Netzsch Proteus Thermal Analy- […]
# Samples of 5–8 mg were loaded in Al2O3 […]
# ment was performed in an air atmosphere (25 cm3min−1) with nitrogen flow (10 cm3min−1) […]
# Differential scanning calorimetry (DSC)
# Phase transformation temperatures were determined on a PerkinElmer DSC-7 (Rot-gau, Germany). The samples of 3–5 mg were loaded on the aluminum pan with a crimped lid. Measurements were carried out in a nitrogen atmosphere (20 cm3 min-1). The rate of heating/cooling was 5°C min-1. […]
# tained for 30 min inside the furnace, then cooled to 0°C to condition the sample and the crucible. After that, heating was conducted to the specified temperature, followed by cool-ing. Unless otherwise stated, two complete cycles of heating and cooling were performed.
# The specified maximum temperature was individual for each compound, determined from TG analysis, and it was at least 10°C lower than the onset decomposition tempera-ture. Temperatures reported from DSC data are curve peaks, the melting points being endothermic upon heating and crystallization point being exothermic upon cooling. Lead, indium, tin, and zinc were used as standards to calibrate the temperature. Indium was used for enthalpy measurement calibration. […]
# [5] = solution transferred to disc 25 mg cm^−3
# [6] = solution transferred to disc 50 mg cm^−3
# [7] = solution transferred to disc 100 mg cm^−3
# [8] = solution transferred to disc 200 mg cm^−3
# [9] = solution transferred to disc 400 mg cm^−3
# [10] = solution transferred to disc 600 mg cm^−3
# [11] = solution transferred to disc 800 mg cm^−3
# [12] = solution transferred to disc 1000 mg cm^−3
Structure (SMILES),Log(KS) formation constant [1],"Inhibition diameter [2, 5]","Inhibition diameter [2, 6]","Inhibition diameter [2, 7]","Inhibition diameter [2, 8]","Inhibition diameter [2, 9]","Inhibition diameter [2, 10]","Inhibition diameter [2, 11]","Inhibition diameter [2, 12]",Inhibition diameter (Escherichia coli; [5]),Inhibition diameter (Escherichia coli; [6]),Inhibition diameter (Escherichia coli; [7]),Inhibition diameter (Escherichia coli; [8]),Inhibition diameter (Escherichia coli; [9]),Inhibition diameter (Escherichia coli; [10]),Inhibition diameter (Escherichia coli; [12]),Inhibition diameter (Micrococcus Luteus; [5]),Inhibition diameter (Micrococcus Luteus; [6]) [mm],Inhibition diameter (Micrococcus Luteus; [7]) [mm],Inhibition diameter (Micrococcus Luteus; [8]) [mm],also measured
"COc1ccc2cc([C@H](C)C(=O)O)ccc2c1 [NAP, S-(+)-naproxen, reference compound]",,-,-,-,-,-,-,-,-,-,-,-,-,-,-,-,,,,,"TTGonset, the onset of the thermal degradation [4]: 224.5 °C; TDTGmax, maximum decomposition temperature [4]: 284.0 °C; zone of inhibition at 25000 µg/mL (Micrococcus Luteus; Micrococcus luteus, 24 h, solution transferred to disc 25 mg cm^−3, read-out: Inhibition diameter): 6.2 ± 0.1 mm; zone of inhibition at 50000 µg/mL (Micrococcus Luteus; Micrococcus luteus, 24 h, solution transferred to disc 50 mg cm^−3, read-out: Inhibition diameter): 6.4 ± 0.1 mm; zone of inhibition at 100000 µg/mL (Micrococcus Luteus; Micrococcus luteus, 24 h, solution transferred to disc 100 mg cm^−3, read-out: Inhibition diameter): 6.7 ± 0.1 mm; zone of inhibition at 200000 µg/mL (Micrococcus Luteus; Micrococcus luteus, 24 h, solution transferred to disc 200 mg cm^−3, read-out: Inhibition diameter): 6.8 ± 0.1 mm; zone of inhibition at 400000 µg/mL (Micrococcus Luteus; Micrococcus luteus, 24 h, solution transferred to disc 400 mg cm^−3, read-out: Inhibition diameter): 7.3 ± 0.2 mm; zone of inhibition at 600000 µg/mL (Micrococcus Luteus; Micrococcus luteus, 24 h, solution transferred to disc 600 mg cm^−3, read-out: Inhibition diameter): 7.6 ± 0.2 mm; zone of inhibition at 800000 µg/mL (Micrococcus Luteus; Micrococcus luteus, 24 h, solution transferred to disc 800 mg cm^−3, read-out: Inhibition diameter): 8.5 ± 0.2 mm"
"CC(C)Cc1ccc(C(C)C(=O)O)cc1.CC(C)OC(=O)[C@@H](N)[C@@H](C)O [[L-ThrOiPr][IBU], L-threonine isopropyl ester ibuprofenate]",6.47,7.5 ± 0.2 mm,10.5 ± 0.2 mm,15.4 ± 0.1 mm,16.9 ± 0.2 mm,17.5 ± 0.2 mm,18.3 ± 0.2 mm,19.8 ± 1.4 mm,23.2 ± 0.1 mm,-,-,-,-,-,-,-,7.3 ± 0.2 mm,10.4 ± 0.2,15.5 ± 0.2,16.3 ± 0.1,"TDTGmax, maximum decomposition temperature [3]: 209.9 [50] °C; Inhibition diameter (Micrococcus Luteus; [9]): 17.0 ± 0.2 mm; Inhibition diameter (Micrococcus Luteus; [10]): 17.5 ± 0.1 mm; Inhibition diameter (Micrococcus Luteus; [11]): 18.2 ± 0.2 mm; Inhibition diameter (Micrococcus Luteus; [12]): 19.3 ± 0.2 mm"
CC(C)OC(=O)[C@@H](N)C(C)C.COc1ccc2cc([C@H](C)C(=O)O)ccc2c1 [[L-ValOiPr][NAP]],5.89,-,-,-,-,-,-,6.6 ± 0.3 mm,7.4 ± 0.1 mm,-,-,-,-,-,-,-,6.2 ± 0.1 mm,6.3 ± 0.1,6.4 ± 0.1,7.2 ± 0.1,"TDTGmax, maximum decomposition temperature [3]: 275.8 [48] °C; Inhibition diameter (Micrococcus Luteus; [9]): 7.3 ± 0.1 mm; Inhibition diameter (Micrococcus Luteus; [10]): 7.4 ± 0.2 mm; Inhibition diameter (Micrococcus Luteus; [11]): 8.2 ± 0.2 mm; Inhibition diameter (Micrococcus Luteus; [12]): 8.6 ± 0.2 mm"
"CC[C@H](C)[C@H](N)C(=O)OC(C)C.COc1ccc2cc([C@H](C)C(=O)O)ccc2c1 [[L-IleOiPr][NAP], L-isoleucine isopropyl ester naproxenate]",6.11,-,-,-,-,-,12.0 ± 0.3 mm,12.4 ± 0.2 mm,13.5 ± 0.3 mm,-,-,-,-,-,-,-,6.4 ± 0.1 mm,6.7 ± 0.1,7.0 ± 0.1,7.3 ± 0.1,"TTGonset, the onset of the thermal degradation [4]: 127.0 °C; TDTGmax, maximum decomposition temperature [4]: 287.4 °C; Inhibition diameter (Micrococcus Luteus; [9]): 7.5 ± 0.2 mm; Inhibition diameter (Micrococcus Luteus; [10]): 8.1 ± 0.6 mm; Inhibition diameter (Micrococcus Luteus; [11]): 8.7 ± 0.1 mm; Inhibition diameter (Micrococcus Luteus; [12]): 9.5 ± 0.1 mm"

# The next lines start with results.
Log(KS) formation constant [1],Structure (SMILES),"Inhibition diameter [2, 5]","Inhibition diameter [2, 6]","Inhibition diameter [2, 7]","Inhibition diameter [2, 8]","Inhibition diameter [2, 9]","Inhibition diameter [2, 10]","Inhibition diameter [2, 11]","Inhibition diameter [2, 12]",Inhibition diameter (Escherichia coli; [5]),Inhibition diameter (Escherichia coli; [6]),Inhibition diameter (Escherichia coli; [7]),Inhibition diameter (Escherichia coli; [8]),Inhibition diameter (Escherichia coli; [9]),Inhibition diameter (Escherichia coli; [10]),Inhibition diameter (Escherichia coli; [12]),Inhibition diameter (Micrococcus Luteus; [5]),Inhibition diameter (Micrococcus Luteus; [6]) [mm],Inhibition diameter (Micrococcus Luteus; [7]) [mm],Inhibition diameter (Micrococcus Luteus; [8]) [mm],also measured
5.78,CC(C)Cc1ccc(C(C)C(=O)O)cc1.CCC(C)C(N)C(=O)OC(C)C (mixture of isomers) [[L-IleOiPr][IBU]],7.5 ± 0.2 mm,9.5 ± 0.4 mm,14.4 ± 0.2 mm,15.4 ± 0.4 mm,17.0 ± 0.2 mm,17.5 ± 0.1 mm,18.0 ± 0.1 mm,19.3 ± 0.1 mm,-,-,-,6.3 ± 0.1 mm,6.4 ± 0.3 mm,7.1 ± 0.2 mm,7.8 ± 0.3 mm,7.2 ± 0.2 mm,7.6 ± 0.1,8.6 ± 0.1,9.4 ± 0.2,"Solubility in Phosphate Buffer pH = 5.4 (physchem): 1.161 ± 0.002 g dm^−3; Solubility in Phosphate Buffer pH = 5.4, as active substance (physchem): 0.631 ± 0.002 gAS dm^−3; Solubility in Phosphate Buffer pH = 7.4 (physchem): 4.038 ± 0.021 g dm^−3; Solubility in Phosphate Buffer pH = 7.4, as active substance (physchem): 2.195 ± 0.021 gAS dm^−3; TDTGmax, maximum decomposition temperature [3]: 221.9 [50] °C; Inhibition diameter (Micrococcus Luteus; [9]): 10.7 ± 0.1 mm; Inhibition diameter (Micrococcus Luteus; [10]): 11.2 ± 0.1 mm; Inhibition diameter (Micrococcus Luteus; [11]): 11.6 ± 0.1 mm; Inhibition diameter (Micrococcus Luteus; [12]): 12.3 ± 0.2 mm"
5.53,CC(C)Cc1ccc(C(C)C(=O)O)cc1.CSCCC(N)C(=O)OC(C)C (mixture of isomers) [[L-MetOiPr][IBU]],-,-,8.3 ± 0.1 mm,13.6 ± 0.2 mm,14.7 ± 0.2 mm,15.4 ± 0.2 mm,17.0 ± 0.2 mm,17.7 ± 0.3 mm,-,6.1 ± 0.1 mm,6.2 ± 0.1 mm,6.5 ± 0.2 mm,7.1 ± 0.3 mm,7.6 ± 0.2 mm,8.1 ± 0.1 mm,-,7.3 ± 0.2,8.5 ± 0.2,10.4 ± 0.1,"Solubility in Phosphate Buffer pH = 5.4 (physchem): 0.932 ± 0.011 g dm^−3; Solubility in Phosphate Buffer pH = 5.4, as active substance (physchem): 0.483 ± 0.011 gAS dm^−3; Solubility in Phosphate Buffer pH = 7.4 (physchem): 3.376 ± 0.001 g dm^−3; Solubility in Phosphate Buffer pH = 7.4, as active substance (physchem): 1.752 ± 0.001 gAS dm^−3; TDTGmax, maximum decomposition temperature [3]: 209.9 [50] °C; Inhibition diameter (Micrococcus Luteus; [9]): 12.6 ± 0.1 mm; Inhibition diameter (Micrococcus Luteus; [10]): 14.1 ± 0.1 mm; Inhibition diameter (Micrococcus Luteus; [11]): 14.3 ± 0.1 mm; Inhibition diameter (Micrococcus Luteus; [12]): 14.6 ± 0.3 mm"
